The nature of assay [1]: Luminescence Cell-Based Dose Confirmation HTS to Identify Activators of 5'UTR Stem-Loop Driven Alpha-Synuclein mRNA Translation in H4 Neuroglioblastoma Cells. [Related pubchem assays: 1829 (Project Summary), 1814 (Primary HTS)]. The class given is functional.
Assay [2] can be described thus: HepG2 cell cytotoxicity, dose response, cytotoxicity control for Shn3 inhibitor project, CellTiter-Glo, cherry-picked (AID 624134). The class given is functional, cell-based.
The next assay addresses T1, Exodeoxyribonuclease V (Escherichia coli (strain K12), UniProt P04993+P07648+P08394).
T1 sequence (P04993 whole entry): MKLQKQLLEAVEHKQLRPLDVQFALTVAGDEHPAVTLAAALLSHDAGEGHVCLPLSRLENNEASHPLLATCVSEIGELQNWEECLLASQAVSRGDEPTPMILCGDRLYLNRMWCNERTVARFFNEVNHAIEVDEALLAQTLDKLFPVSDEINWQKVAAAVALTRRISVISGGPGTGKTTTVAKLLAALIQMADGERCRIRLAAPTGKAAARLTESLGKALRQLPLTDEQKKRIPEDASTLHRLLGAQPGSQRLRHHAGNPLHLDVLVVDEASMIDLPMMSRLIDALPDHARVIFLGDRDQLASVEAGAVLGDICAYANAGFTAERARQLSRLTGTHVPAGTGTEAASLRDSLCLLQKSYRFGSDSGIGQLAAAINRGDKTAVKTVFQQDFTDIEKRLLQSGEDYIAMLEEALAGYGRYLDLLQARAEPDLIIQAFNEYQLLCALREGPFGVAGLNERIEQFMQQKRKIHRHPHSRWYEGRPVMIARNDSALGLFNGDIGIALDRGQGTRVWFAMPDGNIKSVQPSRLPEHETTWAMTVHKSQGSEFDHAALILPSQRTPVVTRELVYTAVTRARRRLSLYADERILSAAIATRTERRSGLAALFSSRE
T1 sequence (P07648 whole entry): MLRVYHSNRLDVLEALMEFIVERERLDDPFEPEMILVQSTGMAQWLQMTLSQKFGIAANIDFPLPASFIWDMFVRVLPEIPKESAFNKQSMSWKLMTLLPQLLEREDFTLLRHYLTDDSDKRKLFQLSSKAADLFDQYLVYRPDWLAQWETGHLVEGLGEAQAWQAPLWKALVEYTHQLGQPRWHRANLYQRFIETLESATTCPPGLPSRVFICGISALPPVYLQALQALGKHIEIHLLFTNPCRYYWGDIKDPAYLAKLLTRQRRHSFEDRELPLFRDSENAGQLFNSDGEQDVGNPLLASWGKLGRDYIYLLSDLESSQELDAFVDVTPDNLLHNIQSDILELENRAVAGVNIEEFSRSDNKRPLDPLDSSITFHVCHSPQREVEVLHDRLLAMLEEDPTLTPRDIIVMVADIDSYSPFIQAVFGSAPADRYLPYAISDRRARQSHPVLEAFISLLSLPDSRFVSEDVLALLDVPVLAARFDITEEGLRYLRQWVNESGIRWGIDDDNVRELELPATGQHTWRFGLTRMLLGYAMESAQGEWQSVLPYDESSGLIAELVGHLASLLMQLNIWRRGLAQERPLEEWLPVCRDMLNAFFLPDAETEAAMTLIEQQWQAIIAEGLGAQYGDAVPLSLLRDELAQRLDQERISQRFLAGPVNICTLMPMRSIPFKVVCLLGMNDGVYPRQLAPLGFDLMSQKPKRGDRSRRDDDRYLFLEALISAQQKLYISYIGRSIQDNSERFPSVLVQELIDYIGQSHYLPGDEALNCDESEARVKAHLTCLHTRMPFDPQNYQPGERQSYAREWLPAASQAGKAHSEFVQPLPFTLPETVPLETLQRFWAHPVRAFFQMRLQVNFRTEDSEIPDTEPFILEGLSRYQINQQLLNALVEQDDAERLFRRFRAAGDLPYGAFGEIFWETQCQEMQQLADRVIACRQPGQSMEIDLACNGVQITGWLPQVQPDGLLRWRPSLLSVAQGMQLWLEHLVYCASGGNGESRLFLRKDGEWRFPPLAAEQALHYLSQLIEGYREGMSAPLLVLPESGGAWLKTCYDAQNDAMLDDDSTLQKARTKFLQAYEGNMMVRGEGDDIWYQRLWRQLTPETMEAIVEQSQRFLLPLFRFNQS
T1 sequence (P08394 whole entry): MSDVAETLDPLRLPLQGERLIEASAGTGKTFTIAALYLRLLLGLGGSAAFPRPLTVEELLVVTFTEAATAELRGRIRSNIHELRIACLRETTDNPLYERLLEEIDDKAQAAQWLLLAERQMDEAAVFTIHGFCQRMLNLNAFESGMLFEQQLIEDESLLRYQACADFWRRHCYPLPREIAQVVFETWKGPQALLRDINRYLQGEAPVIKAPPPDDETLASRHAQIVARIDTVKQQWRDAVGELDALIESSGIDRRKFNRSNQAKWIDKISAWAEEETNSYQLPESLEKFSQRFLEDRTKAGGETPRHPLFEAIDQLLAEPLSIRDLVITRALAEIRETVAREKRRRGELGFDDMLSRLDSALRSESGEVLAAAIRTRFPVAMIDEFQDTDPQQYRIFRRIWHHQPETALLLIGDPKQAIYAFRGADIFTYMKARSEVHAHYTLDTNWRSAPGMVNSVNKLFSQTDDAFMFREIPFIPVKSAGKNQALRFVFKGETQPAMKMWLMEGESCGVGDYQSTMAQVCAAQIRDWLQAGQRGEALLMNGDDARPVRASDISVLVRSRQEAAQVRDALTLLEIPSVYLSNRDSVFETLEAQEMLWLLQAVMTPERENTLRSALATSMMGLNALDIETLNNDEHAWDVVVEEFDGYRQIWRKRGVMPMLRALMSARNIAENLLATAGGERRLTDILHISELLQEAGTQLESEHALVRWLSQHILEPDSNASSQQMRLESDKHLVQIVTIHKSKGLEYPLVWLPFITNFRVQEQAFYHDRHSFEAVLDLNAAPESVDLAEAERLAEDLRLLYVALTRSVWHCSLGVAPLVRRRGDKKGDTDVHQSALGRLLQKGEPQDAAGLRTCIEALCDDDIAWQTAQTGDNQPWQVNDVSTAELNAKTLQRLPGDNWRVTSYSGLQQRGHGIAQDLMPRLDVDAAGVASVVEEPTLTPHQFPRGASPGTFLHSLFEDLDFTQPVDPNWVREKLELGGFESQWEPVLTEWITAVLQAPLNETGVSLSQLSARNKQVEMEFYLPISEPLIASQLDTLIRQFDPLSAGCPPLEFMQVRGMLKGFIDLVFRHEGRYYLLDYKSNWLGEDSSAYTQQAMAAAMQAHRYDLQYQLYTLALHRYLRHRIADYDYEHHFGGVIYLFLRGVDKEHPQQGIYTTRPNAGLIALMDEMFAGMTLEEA
Put plainly: E. coli RecBCD inhibitors, dose response, counter-screen for AddAB inhibitor project, absorbance, V66 E. coli, mutant T4 phage (AID 492957). The format is functional, cell-based, Escherichia coli str. K-12 substr. MG1655. (Counterscreens check selectivity or assay interference.)

Assay [3] is described as follows: control 3'UTR Renilla luciferase suppression, dose response, counter-screen for Shn3 inhibitor project, cell-based, Clone20-Shn3RL, cherry-picked (AID 624133). The format is functional.
A short description of a further assay: cells. The format is functional, cell-based.

Calls of active or inactive are those of the source. Some results are limits rather than exact numbers.

Here are results for four compounds from ChEMBL document CHEMBL1201862, “PubChem BioAssay data set” (2004).

Take `Cc1ccc(-n2sc3ccccc3c2=O)cc1`: in assay [1], the EC50 is > 120 µM (not active).

As for `CCC(=O)NC(c1ccc(C)cc1)c1ccc2cccnc2c1O` (stereo not given), the AC50 in assay [2] was 1.24 µM (active); in assay [3], 0.383 µM (active). For the same compound, the IC50 at Exodeoxyribonuclease V was > 119 µM (inactive). Further, the EC50 in “cells” was > 350 µM (not active).

As to `CC(=O)N(/N=C1\Sc2ccccc2C1=O)c1ccccc1C`, in assay [1], the EC50 is 2.51 µM (active).

In the case of `CCCC(=O)NC(c1ccc(Cl)cc1)c1ccc2cccnc2c1O` (stereo not given), the AC50 is 1.17 µM (active) in assay [2] and 2.72 µM (active) in assay [3]. In addition, the IC50 on Exodeoxyribonuclease V is > 119 µM (inactive). Also, the EC50 in the assay “cells” is on record as > 350 µM (not active).

By EC50 is commonly meant the concentration that produces a half-maximal response. The term AC50 denotes the concentration giving half of the maximal activity seen. For orientation: IC50 means the concentration that gives 50% inhibition.
